Results published in PubChem BioAssay (NCI).
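Five concentrations, 48 hours, 96-well plates. TGI: total growth inhibition.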

Tests used:
Test in all cases: inhibition of tumour cell growth, NCI panel, 48 h
786-0 renal = system: 786-0 renal
LOX IMVI melanoma = system: LOX IMVI melanoma
RXF 393 renal = system: RXF 393 renal
A498 renal = system: A498 renal
NCI-H23 lung = system: NCI-H23 lung
OVCAR-8 ovarian = system: OVCAR-8 ovarian
HL-60(TB) leukemia = system: HL-60(TB) leukemia
HCT-15 colon = system: HCT-15 colon
EKVX NSCLC = system: EKVX NSCLC
IGROV1 ovarian = system: IGROV1 ovarian
DMS 114 small cell lung = system: DMS 114 small cell lung
K-562 leukemia = system: K-562 leukemia
SNB-78 CNS = system: SNB-78 CNS
UACC-257 melanoma = system: UACC-257 melanoma
M14 melanoma = system: M14 melanoma
SF-295 CNS = system: SF-295 CNS
HCC-2998 colon = system: HCC-2998 colon
KM12 colon = system: KM12 colon
CAKI-1 renal = system: CAKI-1 renal
SK-OV-3 ovarian = system: SK-OV-3 ovarian
DLD-1 colon = system: DLD-1 colon
SNB-19 CNS = system: SNB-19 CNS
RXF-631 renal = system: RXF-631 renal
M19-MEL melanoma = system: M19-MEL melanoma
LXFL 529 NSCLC = system: LXFL 529 NSCLC
NCI-H460 lung = system: NCI-H460 lung
HOP-92 NSCLC = system: HOP-92 NSCLC
SR leukemia = system: SR leukemia
RPMI-8226 leukemia = system: RPMI-8226 leukemia
TK-10 renal = system: TK-10 renal
XF 498 CNS = system: XF 498 CNS
NCI-H226 lung = system: NCI-H226 lung
OVCAR-5 ovarian = system: OVCAR-5 ovarian
COLO 205 colon = system: COLO 205 colon
SF-539 CNS = system: SF-539 CNS
HOP-62 NSCLC = system: HOP-62 NSCLC
SNB-75 CNS = system: SNB-75 CNS
OVCAR-3 ovarian = system: OVCAR-3 ovarian
U251 CNS = system: U251 CNS
HT29 colon = system: HT29 colon
OVCAR-4 ovarian = system: OVCAR-4 ovarian
SK-MEL-5 melanoma = system: SK-MEL-5 melanoma
MALME-3M melanoma = system: MALME-3M melanoma
SF-268 CNS = system: SF-268 CNS
SW-620 colon = system: SW-620 colon
CCRF-CEM leukemia = system: CCRF-CEM leukemia
SN12C renal = system: SN12C renal
A549 NSCLC = system: A549 NSCLC
HCT-116 colon = system: HCT-116 colon
UACC-62 melanoma = system: UACC-62 melanoma
NCI-H522 lung = system: NCI-H522 lung
UO-31 renal = system: UO-31 renal
DMS 273 small cell lung = system: DMS 273 small cell lung
MOLT-4 leukemia = system: MOLT-4 leukemia
KM20L2 colon = system: KM20L2 colon
SK-MEL-28 melanoma = system: SK-MEL-28 melanoma
ACHN renal = system: ACHN renal
SK-MEL-2 melanoma = system: SK-MEL-2 melanoma

Measured: TGI

N#CC(C#N)=C(C(C#N)C#N)C(C#N)C#N
not listed: SK-MEL-28 melanoma | ACHN renal | SK-MEL-2 melanoma
> 100 µM: all other assays above

O=c1c2ccccc2nc(-c2ccccc2Cl)n1NCC1(O)OCC(O)C(O)C1O (stereo not drawn)
not listed: IGROV1 ovarian | HCC-2998 colon | DLD-1 colon | HOP-92 NSCLC | NCI-H226 lung | HOP-62 NSCLC
> 100 µM: all other assays above

CNS(=O)(=O)NN(C)S(=O)(=O)c1ccc(OC)cc1
not listed: SNB-78 CNS | SK-OV-3 ovarian | NCI-H460 lung | HOP-92 NSCLC | OVCAR-5 ovarian | OVCAR-3 ovarian | SK-MEL-28 melanoma
> 100 µM: all other assays above
